Our source for the IC50 values is US20240425490A1, “SULFAMIDE RIBONUCLEOTIDE REDUCTASE (RNR) INHIBITORS AND USES THEREOF” (Boundless Bio, Inc., priority 2021, published 2024).

The test concerns the target T1, RNR (RNR1:RNR2 1:1) (Homo sapiens, UniProt P23921).
T1 sequence (P23921 1-792): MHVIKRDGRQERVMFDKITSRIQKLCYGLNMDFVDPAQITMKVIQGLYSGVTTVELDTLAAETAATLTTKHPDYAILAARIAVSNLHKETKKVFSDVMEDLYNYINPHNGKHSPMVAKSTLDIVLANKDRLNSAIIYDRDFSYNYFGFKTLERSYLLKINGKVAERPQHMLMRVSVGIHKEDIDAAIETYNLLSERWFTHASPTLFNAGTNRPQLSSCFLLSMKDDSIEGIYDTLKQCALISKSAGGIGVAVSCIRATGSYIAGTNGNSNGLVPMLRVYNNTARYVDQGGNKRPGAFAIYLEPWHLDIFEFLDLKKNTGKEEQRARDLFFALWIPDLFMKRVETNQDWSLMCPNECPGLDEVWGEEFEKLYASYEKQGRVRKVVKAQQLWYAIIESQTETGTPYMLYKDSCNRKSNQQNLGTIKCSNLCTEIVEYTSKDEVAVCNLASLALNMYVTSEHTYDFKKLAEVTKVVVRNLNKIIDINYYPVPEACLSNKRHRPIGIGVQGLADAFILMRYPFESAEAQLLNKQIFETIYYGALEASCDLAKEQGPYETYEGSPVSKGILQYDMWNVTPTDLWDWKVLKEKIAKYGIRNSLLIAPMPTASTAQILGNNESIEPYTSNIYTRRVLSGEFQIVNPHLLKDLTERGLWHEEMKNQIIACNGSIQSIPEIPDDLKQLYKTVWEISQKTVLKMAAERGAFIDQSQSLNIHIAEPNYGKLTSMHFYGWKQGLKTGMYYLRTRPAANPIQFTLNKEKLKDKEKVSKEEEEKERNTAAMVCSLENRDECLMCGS
Description: RNR enzyme activity, rapid-fire mass spectrometry (RFMS) assay. Type of test: biochemical. The following applies: RNR 50 nM, CDP 5 μM, ATP 1 mM, 37° C., 45 min, compounds screened up to 50 μM, read-out: RF/MS IC50. The gist of the method:
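Human RNR1:RNR2 (1:1, 50 nM) pre-incubated 15 min at room temperature with compound, then reacted with 5 μM CDP and 1 mM ATP, no NADPH, for 45 min at 37 °C. Stopped with 6% HCOOH; turnover read by rapid-fire mass spectrometry; Triapine and hydroxyurea as reference compounds.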
With `Cc1ccc(F)c([C@@H](C)[C@H](NS(=O)(=O)N2CCC3(CC2)OCCO3)c2n[nH]c(=O)o2)c1C` [Example 133, N-((1S,2R)-2-(6-fluoro-2,3-dimethylphenyl)-1-(5-oxo-4,5-dihydro-1,3,4-oxadiazol-2-yl)propyl)-1,4-dioxa-8-azaspiro[4.5]decane-8-sulfonamide], the IC50 fell in the range of 10000 to 100000 nM. Turning to `Cc1ccc(F)c([C@H](C)[C@H](NS(=O)(=O)N2CCC3(CC2)OCCO3)c2n[nH]c(=O)o2)c1C` [Example 134, N-((1S,2S)-2-(6-fluoro-2,3-dimethylphenyl)-1-(5-oxo-4,5-dihydro-1,3,4-oxadiazol-2-yl)propyl)-1,4-dioxa-8-azaspiro[4.5]decane-8-sulfonamide], the IC50 was in the range of 100 to 1000 nM. Turning to `Cc1ccc(F)c([C@@H](C)[C@H](NS(=O)(=O)N2CCc3ccccc3C2)c2n[nH]c(=O)o2)c1C` [Example 135, N-((1S,2R)-2-(6-fluoro-2,3-dimethylphenyl)-1-(5-oxo-4,5-dihydro-1,3,4-oxadiazol-2-yl)propyl)-3,4-dihydroisoquinoline-2(1H)-sulfonamide], the IC50 was 100 to 1000 nM. In the case of `Cc1ccc(F)c([C@H](C)[C@H](NS(=O)(=O)N2CCc3ccccc3C2)c2n[nH]c(=O)o2)c1C` [Example 136, N-((1S,2S)-2-(6-fluoro-2,3-dimethylphenyl)-1-(5-oxo-4,5-dihydro-1,3,4-oxadiazol-2-yl)propyl)-3,4-dihydroisoquinoline-2(1H)-sulfonamide], the IC50 fell in the range of 1000 to 10000 nM.

Take `Cc1ccc(F)c(C(C)[C@H](NS(=O)(=O)N2CCC(F)(F)C2)c2n[nH]c(=O)o2)c1C` (stereo partly drawn) [Example 137, 3,3-difluoro-N-((1S)-2-(6-fluoro-2,3-dimethylphenyl)-1-(5-oxo-4,5-dihydro-1,3,4-oxadiazol-2-yl)propyl)pyrrolidine-1-sulfonamide]: the IC50 was in the range of 10000 to 100000 nM. Regarding `Cc1ccc(F)c(C(C)[C@H](NS(=O)(=O)N2CCCCC2)c2n[nH]c(=O)o2)c1C` (stereo partly drawn) [Example 138, N-((1S)-2-(6-fluoro-2,3-dimethylphenyl)-1-(5-oxo-4,5-dihydro-1,3,4-oxadiazol-2-yl)propyl)piperidine-1-sulfonamide], the IC50 was in the range of 100 to 1000 nM. As for `Cc1ccc(F)c(C(C)[C@H](NS(=O)(=O)N2CCN(C)CC2)c2n[nH]c(=O)o2)c1C` (stereo partly drawn) [Example 139, N-((1S)-2-(6-fluoro-2,3-dimethylphenyl)-1-(5-oxo-4,5-dihydro-1,3,4-oxadiazol-2-yl)propyl)-4-methylpiperazine-1-sulfonamide], the figure is 100 to 1000 nM.
